Measurements reported in patent publication US20120083489A1, “BIS-PYRIDYLPYRIDONES AS MELANIN-CONCENTRATING HORMONE RECEPTOR ANTAGONISTS” (priority 2009, published 2012).

target: T1, hMCHR1 (Homo sapiens, UniProt Q99705); assay: MCHR1 pIC50 determination FLIPR assay; assay type: cell-based; settings: HEK293 cells stably transfected with hMCHR1; MCH challenge at 4xEC50
T1 construct: expressed in transfected cells; host or cells: HEK293
Description: MCHR1 plC50 Determination FLIPR™Assay: HEK293 cells stably transfected with hMCHR1 were propagated as adherent cultures at 37° C. in a humidified incubator. Cells were split 1:8 at 90% confluency two times per week. New cell stocks were recovered from storage every two months. Cells were plated in black 384-well plates (Greiner) 24 hours prior to assay at 15,000 cells/well in 50 μL DMEM/F12, 10% FBS, 2 mM I-glutamine. Compounds to be profiled were prepared by making a stock solution at 3×10^−3M in 100% DMSO. The stock solutions were serially diluted 1:4 in 100% DMSO using JANUS (PerkinElmer) liquid handling instrument to allow for an 11 point curve in singlicate. At the time of the assay, the media was removed from the cell plate by aspiration, followed by the addition of 20 μL of loading buffer (Calcium 4 Kit, […]). Following 50 min incubation at 37° C., 10 μL of compound was added to the plates via the FLIPR™ instrument (Molecular Dynamics corporation). The plates were incubated at room temperature for 15 minutes along with an MCH peptide agonist challenge plate. On the FLIPR™, a basal response was collected over 10 seconds followed by the addition of 10 μL of MCH challenge concentration at 4×EC50. Data was collected over 4 minutes and subjected to a nonlinear regression analysis curve fitting program to generate plC50s.

T1 sequence (Q99705 whole entry): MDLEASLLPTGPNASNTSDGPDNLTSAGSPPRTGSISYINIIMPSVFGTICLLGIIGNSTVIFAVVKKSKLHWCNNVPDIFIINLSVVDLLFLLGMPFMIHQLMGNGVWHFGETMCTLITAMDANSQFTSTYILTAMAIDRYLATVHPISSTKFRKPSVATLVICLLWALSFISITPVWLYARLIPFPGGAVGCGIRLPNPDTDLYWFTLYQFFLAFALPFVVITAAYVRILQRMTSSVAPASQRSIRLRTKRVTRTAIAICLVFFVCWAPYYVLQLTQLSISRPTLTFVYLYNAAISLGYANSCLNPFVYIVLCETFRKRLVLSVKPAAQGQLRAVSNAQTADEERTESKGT

Row | IC50 | SMILES
1 | 50 nM | CS(=O)(=O)NCCNc1ccc(-n2ccc(OCc3ccc(Cl)cn3)cc2=O)cn1 [Example 20]
2 | 25 nM | CCN(CC)CCNc1ccc(-n2ccc(OCc3ccc(Cl)cn3)cc2=O)cn1 [Example 8]
3 | 90 nM | CCS(=O)(=O)NCCNc1ccc(-n2ccc(OCc3ccc(Cl)cn3)cc2=O)cn1 [Example 27]
